Here are results for two compounds from US20230338532A1, “IMMUNOSUPPRESSANT DRUG RESISTANT ARMORED TCR T CELLS FOR IMMUNE-THERAPY OF ORGAN TRANSPLANT PATIENTS” (priority 2020, published 2023).

Common to all, as to type: cell-based, human
The test system of series [1] is HepG2.2.15 cells. Put plainly: TNF-α production of TCR T cells after overnight co-culture with HepG2.2.15 cells. Conditions: clinically relevant concentration. As for the experimental part: FIGS. 1A and 1B show functional profiles of 5183-electroporated T cells treated with tacrolimus. Cytokine production (TNF-α as a representative) of drug-treated S183 TCR-T cells was evaluated following overnight co-culture with HepG2.215 cells. FIG. 1A: Concatenated dot plots (left panel) from representative experiments stained for TNF-α production. […] Non-treated electroporated T cells used as negative control. FIG. 1B: Drug effect on T cell cytolysis determined through impedance measurement. The Normalized Cell Index plot was converted to an area under the curve, and quantified to measure the percentage of cytolysis ˜45 hours after S183-TCR T cell addition. […] Statistical significance was evaluated by 2-tailed t test. […]
FIG. 3A: S183 TCR and mutant CnB m-RNA were co-electroporated and T cell function was evaluated following overnight co-culture with HepG2.2.15 cells. FIG. 3B: Viability and TCR expression of engineered T cells evaluated 24 hours post-electroporation. […] FIG. 3C: Frequency of TNF-α-producing CD8+ cells out of total live CD8+ T cells were quantified following overnight incubation with the targets (n=3). […]
FIG. 5A: Sequence information of siRNA specific for FKBP1A. FIG. 5B: Frequency of TNF-α-producing CD8+ cells out of total live CD8+ T cells were quantified following overnight incubation with the targets and different concentrations of Tacrolimus (n=3). […]

Another series concerns T cells. The series is described as follows: Viability of engineered T cells exposed to immunosuppressants. To be noted: clinically relevant concentration, 48 hours exposure.
Series [2] deals with HepG2.2.15 cells. The series is described as follows: T cell cytolysis by impedance measurement (real time killing assay). To be noted: clinically relevant doses, FIG. 1B. As to the method:
FIGS. 1A and 1B show functional profiles of 5183-electroporated T cells treated with tacrolimus. Cytokine production (TNF-α as a representative) of drug-treated S183 TCR-T cells was evaluated following overnight co-culture with HepG2.215 cells. FIG. 1A: Concatenated dot plots (left panel) from representative experiments stained for TNF-α production. […] Non-treated electroporated T cells used as negative control. FIG. 1B: Drug effect on T cell cytolysis determined through impedance measurement. The Normalized Cell Index plot was converted to an area under the curve, and quantified to measure the percentage of cytolysis ˜45 hours after S183-TCR T cell addition. Each dot represents one individual experiment in bar graphs. Statistical significance was evaluated by 2-tailed t test. […]
FIGS. 6A, 6B and 6C show dual-resistant TCR-redirected T cells were produced by electroporating 3 mRNAs (HBV TCR, CnB mutant and IMPDH mutant) into the T cells. FIG. 6A: Frequency of TNF-α-producing CD8+ cells out of total live CD8 T cells was quantified following overnight incubation with the targets (n=3). […] FIG. 6B: T cell cytolysis determined by real time killing assay in the presence and absence of both drugs. […] FIG. 6C: Viability of dual resistant TCR-T cells evaluated 72 hours after exposure to clinically relevant concentration of both drugs.

The structures appear in SMILES notation.

Take `COc1c(C)c2c(c(O)c1C/C=C(\C)CCC(=O)OCCN1CCOCC1)C(=O)OC2` [MMF, Mycophenolate mofetil]: in the series with HepG2.2.15 cells [1], the “effect on T cell function and killing” value was “does not impair T cell function and killing”. For the same compound, the “effect on viability of modified TCR-T cells” value in the series on T cells is reported as “markedly decreases the viability”.
In the case of `C=CC[C@@H]1/C=C(\C)C[C@H](C)C[C@H](OC)[C@H]2O[C@@](O)(C(=O)C(=O)N3CCCC[C@H]3C(=O)O[C@H](/C(C)=C/[C@@H]3CC[C@@H](O)[C@H](OC)C3)[C@H](C)[C@@H](O)CC1=O)[C@H](C)C[C@@H]2OC` [Tacrolimus], in the series with HepG2.2.15 cells [1] (12 hours incubation with HepG2.2.15 cells), the “effect on T cell TNF-α production” value is reported as “can impair T cell TNF-α production”. For the same compound, the “loss of cytolytic activity of treated T cells” value with HepG2.2.15 cells [2] is ≤ 50 % of the non-treated control.
